These results are taken from US20090069300A1, “ISOQUINOLINYL AND ISOINDOLINYL DERIVATIVES AS HISTAMINE-3 ANTAGONISTS” (Wyeth, priority 2007, published 2009).

pKi: −log10 of the molar value. Structures can show the parent of a compound that is named as a salt. Some results are limits rather than exact numbers.

For the assay, the target named is T1, Human Histamine H3 Receptor (Homo sapiens, UniProt Q9Y5N1).
T1 construct: expressed in transfected cells; host or cells: HEK293T (stably transfected; membranes prepared from the cells)
T1 sequence (Q9Y5N1 whole entry): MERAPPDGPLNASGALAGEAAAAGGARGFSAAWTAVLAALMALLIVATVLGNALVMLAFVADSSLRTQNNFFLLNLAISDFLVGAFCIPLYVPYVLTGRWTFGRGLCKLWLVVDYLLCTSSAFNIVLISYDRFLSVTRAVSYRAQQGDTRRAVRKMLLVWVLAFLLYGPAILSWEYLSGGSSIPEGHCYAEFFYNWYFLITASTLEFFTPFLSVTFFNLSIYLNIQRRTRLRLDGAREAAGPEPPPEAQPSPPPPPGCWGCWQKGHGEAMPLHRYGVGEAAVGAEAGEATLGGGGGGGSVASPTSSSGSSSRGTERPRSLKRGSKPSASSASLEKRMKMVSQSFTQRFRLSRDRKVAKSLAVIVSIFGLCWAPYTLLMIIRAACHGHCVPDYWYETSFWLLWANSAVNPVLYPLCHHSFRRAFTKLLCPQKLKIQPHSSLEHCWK
Nature of the assay: Methyl histamine binding in human histamine H3 receptor cell line. The conditions noted are these: read-out: H3 Binding Ki. As for the experimental part: Evaluation of Methyl Histamine Binding in Human Histamine H3 Receptor Cell Line
The affinity of test compounds for the histamine 3 (H3) receptor is evaluated in the following manner. […] Cells are scraped from the plate, transferred to centrifuge tubes, washed one time in PBS by centrifugation in a Sorvall RT7 Plus centrifuge (2000 rpm 10 minutes, 4° C.). The resulting pellets are stored at −80° C. until ready for use. Cells are re-suspended in buffer (50 mM Tris pH=7.5) and placed in a Dounce homogenizer, douncing ten times to homogenize cells. The homogenate is spun down by centrifugation (Sorvall RT7 Plus, 1800 rpm 10 minutes, 4° C.). The supernatant is placed in a Corex tube and spun down by centrifugation (Sorvall RC 5c Plus, 17,000 rpm 20 minutes, 4° C.). The pellet is resuspended in buffer (50 mM Tris, pH 7.5). Protein concentration (ug/ul) is determined using the Micro-BCA Protein Determination. The binding assay is set up in a 96 well microtiter plate in a total volume of 250 uL. Non-specific binding is determined in the presence of 10 uM clobenpropit. The final radioligand concentration is 1 nM. The test compound is serially diluted using the Beckman Biomek2000 to a final approximate range of 100 uM to 100 pM. Membranes are suspended in buffer, homogenized in 2 bursts of ten seconds using a Vitris mechanical homogenizer set at power setting 5. Ten μg of membranes are added to each well. Following a one hour incubation at 30° C., the reaction is terminated by the addition of ice cold buffer and rapid filtration with a Packard Filtermate Harvester through a GF/B filter pre-soaked with 1% PEI for one hour. The plate is dried for one hour at 37° C. and 60 μL Microscint Scintillant is added to each well. The CPM per well is measured on a Packard Top Count NXT. Ki values are determined in nM. […] CPM values are expressed as % specific binding and plotted vs compound concentration. A curve is fitted using a four-parameter logistic fit and the IC50 value is determined. The Ki is calculated from this using the Cheng-Prusoff equation: […]=IC50/1+(L/Kd) where L=concentration of free radioligand used in the assay, and Kd is the dissociation constant of the radioligand for the receptor. L is determined for each experiment by counting an aliquot of the diluted radioligand (corresponding to that added to each well) and the Kd has previously been determined under identical conditions for this cell line/radioligand.
For `C[C@@H]1CCCN1CCN1CCc2cc(Oc3ccc(C#N)cc3)ccc2C1=O` [Example 49, 4-[(2-{2-[(2R)-2-methylpyrrolidin-1-yl]ethyl}-1-oxo-1,2,3,4-tetrahydroisoquinolin-6-yl)oxy]benzonitrile], the pKi is above 8.00.

Turning to `N#Cc1ccc(Oc2ccc3c(c2)CCN(CCN2CCCC2)C3=O)cc1` [Example 50, 4-{[1-oxo-2-(2-pyrrolidin-1-ylethyl)-1,2,3,4-tetrahydroisoquinolin-6-yl]oxy}benzonitrile], the pKi is above 8.00.

In the case of `C[C@@H]1CCCN1CCN1CCc2cc(Oc3ccc(C#N)nc3)ccc2C1=O` [Example 51, 5-[(2-{2-[(2R)-2-methylpyrrolidin-1-yl]ethyl}-1-oxo-1,2,3,4-tetrahydroisoquinolin-6-yl)oxy]pyridine-2-carbonitrile], the pKi was above 8.00.

With `N#Cc1ccc(Oc2ccc3c(c2)CCN(CCN2CCCC2)C3=O)cn1` [Example 52, 5-{[1-oxo-2-(2-pyrrolidin-1-ylethyl)-1,2,3,4-tetrahydroisoquinolin-6-yl]oxy}pyridine-2-carbonitrile], the pKi is above 8.00.

In the case of `O=C(c1ccc(-c2ccc3c(c2)CCN(CCN2CCCC2)C3=O)cc1)N1CCCC1` [Example 54, 6-[4-(pyrrolidin-1-ylcarbonyl)phenyl]-2-(2-pyrrolidin-1-ylethyl)-3,4-dihydroisoquinolin-1(2H)-one hydrochloride], the pKi was above 8.00.

As to `CN(C)C(=O)c1ccc(-c2ccc3c(c2)CCN(CCN2CCCC2)C3=O)cc1` [Example 56, N,N-dimethyl-4-[1-oxo-2-(2-pyrrolidin-1-ylethyl)-1,2,3,4-tetrahydroisoquinolin-6-yl]benzamide], the negative-log Ki (pKi) was above 8.00.

As to `O=C(NC1CC1)c1ccc(-c2ccc3c(c2)CCN(CCN2CCCC2)C3=O)cc1` [Example 57, N-cyclopropyl-4-[1-oxo-2-(2-pyrrolidin-1-ylethyl)-1,2,3,4-tetrahydroisoquinolin-6-yl]benzamide], the negative-log Ki (pKi) was above 8.00.

On to `CCNC(=O)c1ccc(-c2ccc3c(c2)CCN(CCN2CCCC2)C3=O)cc1` [Example 58, N-ethyl-4-[1-oxo-2-(2-pyrrolidin-1-ylethyl)-1,2,3,4-tetrahydroisoquinolin-6-yl]benzamide], for which the negative logarithm of the Ki (pKi) was above 8.00.

`CNC(=O)c1ccc(-c2ccc3c(c2)CCN(CCN2CCCC2)C3=O)cc1` [Example 59, N-methyl-4-[1-oxo-2-(2-pyrrolidin-1-ylethyl)-1,2,3,4-tetrahydroisoquinolin-6-yl]benzamide]: the pKi is above 8.00.

Regarding `O=C(NCC1CC1)c1ccc(-c2ccc3c(c2)CCN(CCN2CCCC2)C3=O)cc1` [Example 60, N-(cyclopropylmethyl)-4-[1-oxo-2-(2-pyrrolidin-1-ylethyl)-1,2,3,4-tetrahydroiso-quinolin-6-yl]benzamide], the negative-log Ki (pKi) was above 8.00.

With `CC(C)NC(=O)c1ccc(-c2ccc3c(c2)CCN(CCN2CCCC2)C3=O)cc1` [Example 61, N-isopropyl-4-[1-oxo-2-(2-pyrrolidin-1-ylethyl)-1,2,3,4-tetrahydroisoquinolin-6-yl]benzamide], the negative-log Ki (pKi) is above 8.00.

Turning to `CCN(CC)C(=O)c1ccc(-c2ccc3c(c2)CCN(CCN2CCCC2)C3=O)cc1` [Example 62, N,N-diethyl-4-[1-oxo-2-(2-pyrrolidin-1-ylethyl)-1,2,3,4-tetrahydroisoquinolin-6-yl]benzamide], the negative logarithm of the Ki (pKi) was above 8.00.

For the compound `O=C(NC1CCC1)c1ccc(-c2ccc3c(c2)CCN(CCN2CCCC2)C3=O)cc1` [Example 63, N-cyclobutyl-4-[1-oxo-2-(2-pyrrolidin-1-ylethyl)-1,2,3,4-tetrahydroisoquinolin-6-yl]benzamide], the pKi is above 8.00.

Regarding `O=C(c1ccc(-c2ccc3c(c2)CCN(CCN2CCCC2)C3=O)cc1)N1CCC1` [Example 64, 6-[4-(azetidin-1-ylcarbonyl)phenyl]-2-(2-pyrrolidin-1-ylethyl)-3,4-dihydroisoquinolin-1(2H)-one], the pKi was above 8.00.

Regarding `CCN(CC)C(=O)c1ccc(-c2ccc3c(c2)CCN(CCN2CCC[C@H]2C)C3=O)cc1` [Example 65, N,N-diethyl-4-(2-{2-[(2R)-2-methylpyrrolidin-1-yl]ethyl}-1-oxo-1,2,3,4-tetrahydroisoquinolin-6-yl)benzamide], the pKi is above 8.00.

For the compound `C[C@@H]1CCCN1CCN1CCc2cc(-c3ccc(C(=O)N4CCCC4)cc3)ccc2C1=O` [Example 66, 2-{2-[(2R)-2-methylpyrrolidin-1-yl]ethyl}-6-[4-(pyrrolidin-1-ylcarbonyl)phenyl]-3,4-dihydroisoquinolin-1(2H)-one], the pKi is above 8.00.

Regarding `NC(=O)c1ccc(-c2ccc3c(c2)CCN(CCN2CCCC2)C3=O)cc1` [Example 67, 4-[1-oxo-2-(2-pyrrolidin-1-ylethyl)-1,2,3,4-tetrahydroisoquinolin-6-yl]benzamide], the negative logarithm of the Ki (pKi) was above 8.00.

For the compound `O=C(NCCF)c1ccc(-c2ccc3c(c2)CCN(CCN2CCCC2)C3=O)cc1` [Example 68, N-(2-fluoroethyl)-4-[1-oxo-2-(2-pyrrolidin-1-ylethyl)-1,2,3,4-tetrahydroisoquinolin-6-yl]benzamide], the negative-log Ki (pKi) was above 8.00.

Regarding `COCCNC(=O)c1ccc(-c2ccc3c(c2)CCN(CCN2CCCC2)C3=O)cc1` [Example 69, N-(2-methoxyethyl)-4-[1-oxo-2-(2-pyrrolidin-1-ylethyl)-1,2,3,4-tetrahydroisoquinolin-6-yl]benzamide], the pKi was above 8.00.

As for `CC(C)OCCNC(=O)c1ccc(-c2ccc3c(c2)CCN(CCN2CCCC2)C3=O)cc1` [Example 70, N-(2-isopropoxyethyl)-4-[1-oxo-2-(2-pyrrolidin-1-ylethyl)-1,2,3,4-tetrahydroisoquinolin-6-yl]benzamide], the pKi was above 8.00.

With `O=C(NCCOc1ccccc1)c1ccc(-c2ccc3c(c2)CCN(CCN2CCCC2)C3=O)cc1` [Example 71, 4-[1-oxo-2-(2-pyrrolidin-1-ylethyl)-1,2,3,4-tetrahydroisoquinolin-6-yl]-N-(2-phenoxyethyl)-benzamide], the pKi is 7.00 to 7.30.

Consider `CCOCCNC(=O)c1ccc(-c2ccc3c(c2)CCN(CCN2CCCC2)C3=O)cc1` [Example 72, N-(2-ethoxyethyl)-4-[1-oxo-2-(2-pyrrolidin-1-ylethyl)-1,2,3,4-tetrahydroisoquinolin-6-yl]benzamide], for which the negative-log Ki (pKi) was 7.60 to 8.00.

On to `C[C@@H]1CCCN1CCN1CCc2cc(-c3ccc(C(=O)NCC4CC4)cc3)ccc2C1=O` [Example 73, N-(cyclopropylmethyl)-4-(2-{2-[(2R)-2-methylpyrrolidin-1-yl]ethyl}-1-oxo-1,2,3,4-tetrahydroisoquinolin-6-yl)benzamide], for which the negative-log Ki (pKi) was above 8.00.

With `C[C@@H]1CCCN1CCN1CCc2cc(-c3ccc(C(=O)NC4CCC4)cc3)ccc2C1=O` [Example 74, N-cyclobutyl-4-(2-{2-[(2R)-2-methylpyrrolidin-1-yl]ethyl}-1-oxo-1,2,3,4-tetrahydroisoquinolin-6-yl)benzamide], the pKi is above 8.00.

For `CCNC(=O)c1ccc(-c2ccc3c(c2)CCN(CCN2CCC[C@H]2C)C3=O)cc1` [Example 75, N-ethyl-4-(2-{2-[(2R)-2-methylpyrrolidin-1-yl]ethyl}-1-oxo-1,2,3,4-tetrahydroisoquinolin-6-yl)benzamide], the negative-log Ki (pKi) is above 8.00.

With `C[C@@H]1CCCN1CCN1CCc2cc(-c3ccc(C(=O)NC4CC4)cc3)ccc2C1=O` [Example 76, N-cyclopropyl-4-(2-{2-[(2R)-2-methylpyrrolidin-1-yl]ethyl}-1-oxo-1,2,3,4-tetrahydroisoquinolin-6-yl)benzamide], the pKi was above 8.00.

One may read the pKi as the negative decadic logarithm of the Ki, by convention in mol/L.
